Here are results for five compounds from paper PMC4246079, “Structure and Mechanism of the Bifunctional CinA Enzyme from Thermus thermophilus” (The Journal of Biological Chemistry, 2014).

The target in test [1] is T1, TtCinA (Thermus thermophilus, UniProt Q5SHB0).
T1 construct: gene TTHA1820; full-length, N-terminal His6 tag with thrombin site (pET28a, thrombin-treated), expressed in E. coli T7 Express; asymmetric homodimer (~72 kDa by SEC, 86 kDa predicted dimer)
In words: X-ray crystal structure ([…] Å; crystal soak). It is filed as binding. The note with it: ADPR site of COG1058 domain, both sites; 5 mM MgCl2, 25 mM ligand, Mg2+ bound; no hydrolysis seen.

In test [2] the target is T1, TtCinA. As to the kind of experiment: X-ray crystal structure ([…] Å; crystal soaked with NMN). It is filed as binding. The note with it: NMN deamidase site; built as product NCN by presumption, density could not distinguish NMN from NCN; 5 mM MgCl2, 25 mM NMN soak.
For test [3], the target named is T1, TtCinA. In words: reverse-phase HPLC of conversion to NCN. The class given is biochemical. The note with it: NMN deamidase; 1 mM NMN, 100 μg enzyme per ml, 25 mM Tris-HCl pH 8.0, 100 mM NaCl, 37 °C, 15 min.
For test [4], the target named is T1, TtCinA. As to the kind of experiment: X-ray crystal structure ([…] Å; crystal soak). The note with it: ADPR site of COG1058 domain, open site only, weaker density; 5 mM MgCl2, 25 mM ligand (AMP/ribose 5-phosphate), Mg2+ bound. It is filed as binding.
Test [5] deals with T1, TtCinA. In words: X-ray crystal structure ([…] Å; crystal soak); turnover to AMP also seen by HPLC. It is filed as binding. The note with it: ADPR site of COG1058 domain, both open and closed sites; 5 mM MgCl2, 25 mM ligand, Mg2+ bound; HPLC assay with 1 mM ADP-ribose, 4 mM CoCl2, 100 mM KCl, pH 8.0, 50 °C.

T1 sequence (Q5SHB0 entry or part of it): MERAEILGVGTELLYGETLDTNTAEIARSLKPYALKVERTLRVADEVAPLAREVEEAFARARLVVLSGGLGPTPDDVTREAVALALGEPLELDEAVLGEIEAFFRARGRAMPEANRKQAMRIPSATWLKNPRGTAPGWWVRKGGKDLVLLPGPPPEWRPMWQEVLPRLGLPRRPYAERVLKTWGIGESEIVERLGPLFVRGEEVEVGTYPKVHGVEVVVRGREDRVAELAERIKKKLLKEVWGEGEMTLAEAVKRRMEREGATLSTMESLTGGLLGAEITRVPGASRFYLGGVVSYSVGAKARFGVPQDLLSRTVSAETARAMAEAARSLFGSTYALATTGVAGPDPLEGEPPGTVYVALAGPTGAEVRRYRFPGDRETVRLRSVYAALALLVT

For `Nc1ncnc2c1ncn2[C@@H]1O[C@H](COP(=O)(O)OP(=O)(O)OP(=O)(O)O)[C@@H](O)[C@H]1O` [ATP], the “X-ray crystal structure (2.21 Å; crystal soak)” value at TtCinA [1] was “ATP binds in a very similar conformation to ADP-ribose”.

Regarding `O=C([O-])c1ccc[n+]([C@@H]2O[C@H](COP(=O)(O)O)[C@@H](O)[C@H]2O)c1` [NCN, nicotinate mononucleotide], the “X-ray crystal structure (2.46 Å; crystal soaked with NMN)” value at TtCinA [2] is “it was not possible to distinguish NMN from the product, NCN”.

`NC(=O)c1ccc[n+]([C@@H]2O[C@H](COP(=O)([O-])O)[C@@H](O)[C@H]2O)c1` [NMN, nicotinamide mononucleotide]: the “reverse-phase HPLC of conversion to NCN” value on TtCinA [3] was “NMN showed rapid conversion to NCN product in the presence of TtCinA”. For the compound `Nc1ncnc2c1ncn2[C@@H]1O[C@H](COP(=O)(O)O)[C@@H](O)[C@H]1O` [AMP], the “X-ray crystal structure (1.98 Å; crystal soak)” value on TtCinA [4] is given as “it was possible to model in an AMP molecule in one of the two active sites”. On to `Nc1ncnc2c1ncn2[C@@H]1O[C@H](COP(=O)(O)OP(=O)(O)OC[C@H]2OC(O)[C@H](O)[C@@H]2O)[C@@H](O)[C@H]1O` (some centres unmarked) [ADP-ribose], for which the “X-ray crystal structure (1.99 Å; crystal soak); turnover to AMP also seen by HPL” value at TtCinA [5] is “ADP-ribose and ATP data sets produced clear difference density in both catalytic sites”.
